Series [1] deals with CD19^+ Raji cells. The experiment in a line: In vitro cytotoxicity and IFNγ secretion of CD19 CAR T cells. The format is cell-based, human. The settings on record: T cells cultured 7 days with 500 µM DEG. On the procedure:
Secreted IFNγ levels of cultured cells were determined using an ELISA. Assays were performed with uncoated ELISA kits (catalogue no. 88-7316, Thermo Fisher Scientific), according to the manufacturer’s instructions. Absorbance was determined using a microplate reader (Sunrise, Tecan) at a wavelength of 450 nm.
Ten thousand B16F10-OVA or SKOV3 cells were seeded per well in 96-well plates and cocultured for a minimum of 14 h with varying ratios of mouse CD8^+ OT1 or human CD8^+RQR8^+ HER2 CAR T cells, respectively. T cells had been treated with or without DEG 7 days before the assay. Wells were washed twice with PBS to remove T cells and the number of remaining target cells was determined by culturing with 10 µg ml^−1 resazurin (catalogue no. R7017, Sigma-Aldrich) and measuring the fluorescence signal in a plate reader. Cytotoxicity was calculated relative to wells with no T cells added. Ten thousand Raji cells were cocultured for a minimum of 14 h with CD19 CAR T cells previously activated for 7 days and cultured with or without DEG. Cytotoxicity was assessed by flow cytometry using the ratio of live Raji cells to CountBright Absolute Counting Beads (catalogue no. C36950, Thermo Fisher Scientific). To determine specific cytotoxicity, data were normalized to the cytotoxicity of the vector-controlled transduced CD8 T cells of the respective donor.

Series [2] concerns the target T1, PDHc (Homo sapiens, UniProt P10515).
T1 construct: we performed a direct enzymatic activity assay of the PDHc on CD8^+ T cell lysates; endogenous in cells; host or cells: human CD8+ T cells, lysate (activity kit MAK183, Sigma-Aldrich)
The series is described as follows: PDHc activity assay on CD8^+ T cell lysates. The format is cell-based. Conditions: 500 µM DEG. The method, then: PDHc activity was determined using a PDHc Activity Assay Kit (catalogue no. MAK183, Sigma-Aldrich). A total of 1 × 10^6 cells were used per reaction and the assay was performed according to the manufacturer’s instructions. Activity was normalized to total protein concentration. Data were acquired on a FLUOstar Omega (BMG Labtech).

In series [3] the test system is 5hmC (the reaction product of TET2) in human CD8^+ T cells. The series is described as follows: 5hmC staining by flow cytometry. Format: cell-based. The settings on record: DEG 7 days, dose-dependent. On the procedure:
For 5-hydroxymethylcytosine (5hmC) staining, cells were stained for surface antigens as above and then fixed and permeabilized with the Transcription Factor Buffer Set. Next cells were incubated with 4 M HCl for 10 min at room temperature. Cells were then thoroughly washed and incubated in blocking buffer (0.1% PBS-Triton X-100, 5% FCS) for 30 min at 4 °C. Cells were then incubated with primary anti-5hmC (catalogue no. 10013602, Active Motif) overnight at 4 °C and the day after with secondary antibody for 1 h at room temperature. Flow cytometry was then performed as explained above. Cells were sorted on an FACSAria III (BD Biosciences) after surface antigen staining as described above. Data were analysed using FlowJo v.10.7.2.
(In flow cytometry, cells or beads pass a laser one at a time.)

Series [4] deals with human CD8^+ T cells. The series is described as follows: Isotope tracing of ^13C5-labelled DEG and intracellular glutarate by LC-tandem MS. Format: in vitro ADME. On the procedure: To affirm that exogenous administration of DEG leads to increased intracellular glutarate levels, we performed isotope tracing of human CD8^+ T cells treated with ^13C5-labelled DEG.
Cells were counted to determine viable cell numbers (Fig. 1f,h,i and Extended Data Fig. g,h,k). A total of 0.5–2 × 10^6 viable cells were collected, washed with cold PBS and metabolic activity was quenched by freezing samples in dry ice and ethanol, and stored at −80 °C. Metabolites were extracted by adding 150 μl ice-cold 1:1 (vol/vol) methanol/water (containing 1 mM N-cyclohexyl-2-aminoethanesulfonic acid (CHES) as an internal standard) to the cell pellets; samples were transferred to a chilled microcentrifuge tube containing 150 μl chloroform and […] (750 μl total in 3:1:1 vol/vol methanol/water/chloroform). Samples were sonicated in a water bath for 8 min at 4 °C, and centrifuged (13,000g) for 10 min at 4 °C. The supernatant containing the extract was transferred to a new tube for evaporation using TurboVap LV (Biotage), resuspended in 3:3:1 (vol/vol/vol) methanol/water/chloroform (350 μl total) to phase-separate polar metabolites from apolar metabolites and centrifuged. The aqueous phase was transferred to a new tube for evaporation using TurboVap LV, washed with 60 μl methanol and dried again. Evaporated extracts were dissolved in 100 µl MeOH–50% water, before injection on the machine. Isotopically labelled glutarates were determined by liquid chromatography (LC)–tandem mass spectrometry (tandem MS) on a Waters ACQUITY UPLC system coupled to a Xevo-TQ-XS mass spectrometer. […] The column was subsequently washed in 75% A for 2.5 min and re-equilibrated at initial conditions for 3 min. MS analyses were performed in multiple reaction monitoring (MRM) mode, with positive electrospray ionization (ESI) from minute 0 – 1.4 and negative electrospray ionization (ESI) from minute 1.4 to minute 4.7. Positive ESI was conducted according to the following parameters: capillary potential 3 kV, source offset 30 V, cone voltage 15 V, source temperature 150 °C, desolvation temperature 600 °C, cone gas flow 150 l h^−1, desolvation gas flow, 1,000 l h^−1, nebulizer 7 bar and collision gas flow 0.17 ml min^−1. Negative ESI was operated under the same conditions but with a capillary potential set to 2 kV and a cone voltage set to 20 V. Acquisition was performed using MRM with the mass transitions and parameters illustrated in Supplementary Table 4. […]
Cells were counted to determine the viable cell numbers (Extended Data Fig. 1i,n). […]
Glutarate was determined by LC–tandem MS on a Waters ACQUITY UPLC system coupled to a Xevo-TQ-S mass spectrometer (Waters). […]

For `CCOC(=O)CCCC(=O)OCC` [DEG, Diethyl glutarate], in series [1], the “cytotoxicity of CD19^+ CAR T cells against CD19^+ Raji cells” value is listed as “increased cytotoxicity”. Also, in series [1] (coculture with Raji cells), the “interferon-γ (IFNγ) secretion of CD19^+ CAR T cells” value is “secreted more”. Besides, the “PDHc activity, acute exposure” value in series [2] (30 min) is “decreased PDHc activity”. In series [2] (seven day), the “PDHc activity, chronic exposure” value is “decreased PDHc activity”. The 5hmC levels result in series [3] was “decrease”. For the same compound, the “time of conversion of DEG to glutarate intracellularly” value in series [4] was not above 15 min. Besides, the “increase of measured intracellular glutarate concentrations” value in series [4] (500 µM DEG, 7 days) is “approximately twofold”. Further, in series [4] (15 min after administration of the labelled compound), the “intracellular DEG” value is recorded as “could not be detected”. In addition, in series [4] (^13C5-labelled DEG), the “conversion of DEG into intracellular glutarate after uptake” value is reported as “very rapidly converted into intracellular glutarate”.

These data come from article PMC10590756, “Glutarate regulates T cell metabolism and anti-tumour immunity” (Nature Metabolism, 2023).
